Measured values as given in patent US20080131432A1, “Method of treating the chemotoxic effects of chemotherapeutic drugs on brain tissue” (University of Kentucky Research Foundation, priority 2005, published 2008).
Entries after “also recorded” stand apart in the source; their conditions may differ.

Key:
TNF α = TNF α levels in serum (mouse TNF-α ELISA); format: in vivo
Protocol: Mice were treated with 20 mg/kg ADR or saline as control. Blood samples were collected at 1, 3, 6, 9, 24 hours and allowed to clot at 2-8° C. overnight. Serum samples were used to measure TNF α levels, according to the mouse enzyme-linked immunosorbent assay following the manufacturers' instructions (mouse TNF-α/TNFSF1A immunoassay, R&D Systems, Minneapolis, MN). The TNF α concentration in the sample was calculated from a recombinant mouse TNF α standard curve. The minimum detection limit is typically less than 5.1 pg/mL.
8-week-old male B6C3 mice (25-30 g) were kept under standard conditions. Mice were injected with a single intraperitoneal (i.p.) treatment with adriamycin (doxorubicin hydrochloride, 20 mg/kg), TNF-α, anti-mouse TNF-antibody (40 ng/kg), dipropylenetriamine NONOate (DPTA NONOate, […]), lipopolysaccharide (LPS 1 mg/kg), NG-nitro-L-arginine-methyl esther (L-NAME, 10 mg/kg) or pre-immune IgG.
Mice were treated with 20 mg/kg ADR, TNF-α, anti-mouse TNF-antibody, dipropylenetriamine NONOate, lipopolysaccharide, NG-nitro-L-arginine-methyl esther or pre-immune IgG, as well as saline as control. Blood samples were collected at 3 hours after ADR treatment and allowed to clot at 2-8° C. overnight. Serum samples were used to measure TNF levels, according to the mouse enzyme-linked immunosorbent assay following the manufacturers' instructions (mouse TNF-α/TNFSF1A immunoassay, R&D Systems, Minneapolis, Minn.). The TNF concentration in the sample was calculated from a recombinant mouse TNF standard curve. The minimum detection limit is typically less than 5.1 pg/mL.

[1] = test system: mitochondrial respiration complex I; assay: Brain mitochondrial respiration, complex I (pyruvate + malate), respiration control ratio; settings: iNOSKO mice, 3 hours after treatment
Protocol: Mice were perfused via cardiac puncture with cold mitochondrial isolation buffer, the brain promptly removed, the cerebellum dissected away, and mitochondria immediately isolated from the freshly brain by a modification of the method described by Mattiazzi et al. (2002). Brain mitochondria were isolated in cold mitochondrial isolation buffer, containing 0.07 M sucrose, 0.22 M mannitol, 20 mM HEPES, 1 mM EGTA, and 1% bovine serum albumin, pH 7.2. Tissues were homogenized with a Dounce homogenizer and centrifuged at 1,500×g at 4° C. for 5 minutes before transferring the supernatant. The pellets were resuspended and centrifuged at 1,500×g at 4° C. for 5 minutes. The supernatants were combined and centrifuged at 13,500×g at 4° C. for 10 minutes. Mitochondrial pellets were washed twice and finally resuspended in 50-100 μL cold isolation buffer. Protein concentration of isolated mitochondria was determined by the Bradford assay (Bradford, 1976). The final protein concentration was 20-40 mg/ml.
Mitochondrial respiration was determined using Clark-type polarographic oxygen sensors (Hansatech Instruments, Kings Lynn, Norfolk, UK) to measure the rate of oxygen consumption. Freshly isolated mitochondria were suspended in respiration buffer at a concentration of 0.5 mg mitochondrial protein per mL of respiration buffer, which consists of 0.25 M sucrose, 50 mM HEPES, 1 mM EGTA, 10 mM KH2PO4, and 2 mM MgCl2, pH 7.4. Oxygen consumption was measured with either pyruvate (10 mM) plus malate (10 mM) or succinate (10 mM) as substrates for respiration from complex I or complex II in the absence of exogenous ADP (state II) and after addition of 300 mM ADP (state III respiration). Rotenone (5 μM) was added to the reaction to inhibit respiration from complex I when succinate was used as the substrate. […] FCCP (1 μM), an uncoupling agent, was added as a control of respiration. Respiration control ratios (RCR) were calculated as the ratios of state III and state II respiration as described previously by Estabrook (1967). The unit for state II rate and state III rate is nmole/min/mg protein.
Mice were perfused via cardiac puncture with cold mitochondrial isolation buffer, the brain promptly removed, the cerebellum dissected away, and mitochondria immediately isolated from the freshly brain by a modification of the method described by Mattiazzi et al. (2002). Brain mitochondria were isolated in cold mitochondrial isolation buffer, containing 0.07 M sucrose, 0.22 M mannitol, 20 mM HEPES, 1 mM EGTA, and 1% bovine serum albumin, pH 7.2. Tissues were homogenized with a Dounce homogenizer and centrifuged at 1,500×g at 4° C. for 3 minutes before transferring the supernatant fluid. The pellets were resuspended and centrifuged at 1,500×g at 4° C. for 3 minutes. The supernatant fluids were combined and centrifuged at 1,500×g at 4° C. for 3 minutes. These supernatant fluids were then centrifuged at 13,500×g at 4° C. for 10 minutes. Mitochondrial pellets were washed twice and finally resuspended in 50-100 μL cold isolation buffer. Protein concentration of isolated mitochondria was determined by the Bradford assay (Bradford, 1976).
Mitochondrial respiration was determined using Clark-type polarographic oxygen sensors (Hansatech Instruments, UK) to measure the rate of oxygen consumption. Freshly-isolated mitochondria were suspended in respiration buffer at a concentration of 0.5 mg mitochondrial protein/mL respiration buffer, which consisted of 0.25 M sucrose, 50 mM HEPES, 1 mM EGTA, 10 mM KH2PO4, 2 mM MgCl2 and 0.2% BSA, pH 7.4. Oxygen consumption was measured with either pyruvate (10 mM) or pyruvate plus malate (10 mM) as substrates for respiration from complex I, in the absence of exogenous ADP (state II), and after addition of 300 mM ADP (state III respiration). […] FCCP (1 μM), an uncoupling agent, was added as a control respiration. Respiration control ratios (RCR) were calculated as the ratios of state III and state II respiration.

MnSOD = settings: wild-type mice
iNOS mRNA = iNOS mRNA expression in brain tissues (RT-PCR); format: in vivo, mouse; settings: wild-type mice, 3 hours after treatment, vs saline controls
Protocol: At 3 hours after treatment, mice were anesthetized and perfused via cardiac puncture with 0.1 M PBS, pH 7.4. The MRNA was isolated using the Micro-FastTrack 2.0 Kit (Invitrogen, Groningen, Netherlands) according to the manufacturer's instructions. The purified MRNA (5 μg) was subjected to reverse-transcription into first strand cDNA in each 20 μL of reaction mixture using the SuperScript III First-Strand Synthesis System for RT-PCR (Invitrogen) according to the manufacturer's instruction. A 25 μL PCR reaction contained 5 μL first strand cDNA, 0.1 U Taq DNA polymerase (Invitrogen), 10 mM 10×PCR buffer, 1.5 mM MgCl2, 2.5 mM dNTP and 10 pmol of each specific primer. PCR samples were subjected to the following conditions: 35 cycles for iNOS (94° C.: 1 minute; 65° C.: 1 minute; 72° C.: 1 minute), 32 cycles for β-actin (94° C.: […]; 55° C.: 30 s; 72° C.: 10 minutes), on a thermocycle (Perkin-Elmer). The primers with the target gene sequences were synthesized by Invitrogen. The primer sequence iNOS was 5′-CTGATGGTCAAGATCCAG-A-GGTCT-3′ (forward) and 5′-[…]-CTCT-3′(reverse), and the primer for β-actin was 5′-TGTTAC-CAACTGGGACGACA-3′ (forward) and 5′-CTGGGTCATCTT-TTCACCGT-3′ (reverse). After amplification, PCR products were subjected to 1% agarose gel electrophoresis, and visualized by ethidium bromide staining. The relative density of bands was analyzed under ultraviolet light (Bio-Rad). Experiments were repeated three times for reproducibility.

Molecule: NCCCN(CCCN)/[N+]([O-])=N/O [DPTA NONOate, dipropylenetriamine NONOate]
- TNF-α level in serum (circulating TNF-α) (TNF α; iNOSKO mice, 3 hours after treatment): did not lead to changes; also recorded: had no effect
- Brain mitochondrial respiration complex I (RCR) [1]: significantly lowered; also recorded: causes mitochondrial dysfunction

Molecule: COC(=O)[C@@H](N)CCCNC(=N)N[N+](=O)[O-] [L-NAME, NG-nitro-L-arginine-methyl esther]
- MnSOD activity in brain vs saline- or ADR-treated mice (MnSOD; L-NAME 10 mg/kg i.p.): led to increased MnSOD activity
- Effect on ADR-induced MnSOD inactivation (MnSOD; L-NAME with ADR): prevented MnSOD inactivation

Molecule: TNF-α
- TNF α level in serum (circulating TNF α) (TNF α; wild-type mice, 3 hours after single i.p. treatment, vs saline control): increased
- iNOS mRNA levels in brain tissues (iNOS mRNA): significantly increased

Molecule: lipopolysaccharide [LPS]
- iNOS mRNA levels in brain tissues (iNOS mRNA): significantly increased
